Assay results from US8614182B2 (Jiangsu Hansoh Pharmaceuticals Co., Ltd., priority 2009, dated 2013).
Non-standard residues stand in square brackets, D forms with d. Residues, ends and D or L forms follow the SMILES beside them. *: point of attachment. εLys(Nα-Palmitoyl) = CCCCCCCCCCCCCCCC(=O)N[C@@H](CCCCN*)C(=O)O; Aib = CC(C)(N)C(=O)O

Legend:
[1] = target: T1, Glucagon-like peptide-1 receptor (GLP1R) (Homo sapiens, UniProt P43220); assay: Agonist activity on GLP1R, cAMP response element luciferase reporter gene in HEK293 cells; type: cell-based; settings: HEK293 cells stably transfected with GLP1R and pCRE-Luc, 5 hours incubation; read-out: Maximum reaction rate
T1 construct: expressed in transfected cells; host or cells: HEK293
T1 sequence (P43220 24-463, species assumed): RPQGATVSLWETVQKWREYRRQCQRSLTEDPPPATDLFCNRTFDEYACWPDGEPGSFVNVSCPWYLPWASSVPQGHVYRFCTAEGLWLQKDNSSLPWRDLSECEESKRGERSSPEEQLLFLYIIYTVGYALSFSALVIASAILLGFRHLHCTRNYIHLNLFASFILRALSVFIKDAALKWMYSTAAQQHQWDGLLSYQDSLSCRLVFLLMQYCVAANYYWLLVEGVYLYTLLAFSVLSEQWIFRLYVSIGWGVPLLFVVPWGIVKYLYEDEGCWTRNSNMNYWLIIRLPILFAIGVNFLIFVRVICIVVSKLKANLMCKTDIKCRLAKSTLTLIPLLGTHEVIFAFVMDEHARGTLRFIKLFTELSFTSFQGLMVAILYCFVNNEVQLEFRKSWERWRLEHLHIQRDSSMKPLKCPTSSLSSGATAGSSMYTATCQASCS
From the text: GLP1R is a receptor coupled with Gs protein, of which the binding with the agonists will result in an increase of intracellular cAMP concentration. In the present experiment, GLP1R and the luciferase reporter gene plasmid regulated by cAMP response elements are co-transfected into HEK293 cells. When the compound binds to the receptor and activates the receptors, the expression of the luciferase will increase. The activation status of the compound to GLP1R can be learned by testing the activity of the luciferase.
2. The compounds or positive drugs having a certain concentration gradient were added (3 wells per concentration) and incubated at 37° C. for 5 hours. The negative control was solvent DMSO.
3. 50 μl culture medium was taken from each well, and 50 μl of the luciferase substrate were added and vortexed for 10 minutes.
4. 80 μl reaction solution was taken and transferred to a white 96 well plate, then detected on the Invision microplate reader (enzyme-labelling measuring instrument).

[2] = system: db/db mice with type 2 diabetes; assay: Random blood glucose of db/db mice after single subcutaneous injection; type: in vivo; settings: for random blood glucose: n = 8; for decrease rate of random blood glucose: versus control group
Protocol: db/db mice with type 2 diabetes were divided into six groups based on a random blood glucose and body weight (8 per group). […] The random blood glucose of the mice is determined at differete time after administration.
Preparation method: 1 bottle of the compound (2 mg/bottle) was dissolved with double-distilled water to prepare a colorless and transparent solution of which the concentration is 2 mg/mL. […] “ACCU-CHEK® Advantage” blood glucose meter form Roche was used to determine the blood glucose.
Route and volume of administration: Single subcutaneous injection dose, dose volume was 5 mL/kg. […]
The random blood glucoses of db/db mice were measured.
Each group has 8 mice, half male and half female. The animals of each group were administered with the test compounds or solvent control respectively through single subcutaneous injection.

[3] = cited from earlier work

Compound: CCCCCCCCCCCCCCCC(=O)N[C@@H](CCCCNC(=O)[C@H](CO)NC(=O)[C@@H]1CCCN1C(=O)[C@@H]1CCCN1C(=O)[C@@H]1CCCN1C(=O)[C@H](C)NC(=O)CNC(=O)[C@H](CO)NC(=O)[C@H](CO)NC(=O)[C@@H]1CCCN1C(=O)CNC(=O)CNC(=O)[C@H](CCCNC(=N)N)NC(=O)[C@@H](NC(=O)[C@H](CC(C)C)NC(=O)[C@H](Cc1c[nH]c2ccccc12)NC(=O)[C@H](C)NC(=O)[C@@H](NC(=O)[C@H](Cc1ccccc1)NC(=O)[C@H](CCC(=O)O)NC(=O)[C@H](CCCCN)NC(=O)[C@H](C)NC(=O)[C@H](C)NC(=O)[C@H](CCC(=O)O)NC(=O)[C@H](CCC(=O)O)NC(=O)[C@H](CCC(=O)O)NC(=O)[C@H](CC(C)C)NC(=O)[C@H](Cc1ccc(O)cc1)NC(=O)[C@H](CO)NC(=O)[C@H](CO)NC(=O)[C@@H](NC(=O)[C@H](CC(=O)O)NC(=O)[C@H](CO)NC(=O)[C@@H](NC(=O)[C@H](Cc1ccccc1)NC(=O)[C@@H](NC(=O)CNC(=O)[C@H](CCC(=O)O)NC(=O)C(C)(C)NC(=O)[C@@H](N)Cc1c[nH]cn1)[C@@H](C)O)[C@@H](C)O)C(C)C)[C@@H](C)CC)C(C)C)C(=O)O [HS-20004] (H-H[Aib]EGTFTSDVSSYLEEEAAKEFIAWLVRGGPSSGAPPPS-{εLys(Nα-Palmitoyl)}; N-terminus and C-terminus assumed)
- Emax [1]: 90.8%
- random blood glucose ([2]; 3 μg/kg single s.c., 1 h after administration, X ± s): 20.11 ± 1.28 mmol/L
- decrease rate of random blood glucose ([2]; 3 μg/kg single s.c., 1 h after administration): 15.00%
- decrease rate of random blood glucose ([2]; 3 μg/kg single s.c., 1 h after administration, listed as 20004): 15.00%
- random blood glucose ([2]; 3 μg/kg single s.c., 2 h after administration, X ± s): 18.81 ± 1.50 mmol/L
- decrease rate of random blood glucose ([2]; 3 μg/kg single s.c., 2 h after administration): 16.85%
- random blood glucose ([2]; 3 μg/kg single s.c., 4 h after administration, X ± s): 17.98 ± 1.38 mmol/L
- decrease rate of random blood glucose ([2]; 3 μg/kg single s.c., 4 h after administration): 18.30%
- random blood glucose ([2]; 3 μg/kg single s.c., 8 h after administration, X ± s): 23.30 ± 1.47 mmol/L
- decrease rate of random blood glucose ([2]; 3 μg/kg single s.c., 8 h after administration): 8.22%
- random blood glucose values compared with those of the control group ([2]; 3 μg/kg single s.c., after 2 h and 4 h, P<0.05): kept a lower level and had significant difference
- random blood glucose values compared with those of the control group ([2]; 3 μg/kg single s.c., after 8 hours): no significant difference
- random blood glucose values compared with those of the control group ([2]; 3 μg/kg single s.c., after one hour, P<0.05): decreased significantly
- random blood glucose ([2]; 3 μg/kg single s.c., before administration, X ± s): 25.11 ± 1.63 mmol/L
- decrease rate of random blood glucose ([2]; 10 μg/kg single s.c., 1 h after administration): 36.20%
- random blood glucose ([2]; 10 μg/kg single s.c., 1 h after administration, ± s): 19.63 ± 1.81 mmol/L
- decrease rate of random blood glucose ([2]; 10 μg/kg single s.c., 2 h after administration): 27.82%
- random blood glucose ([2]; 10 μg/kg single s.c., 2 h after administration, ± s): 21.86 ± 1.66 mmol/L
- decrease rate of random blood glucose ([2]; 10 μg/kg single s.c., 4 h after administration): 28.30%
- random blood glucose ([2]; 10 μg/kg single s.c., 4 h after administration, ± s): 21.44 ± 1.68 mmol/L
- decrease rate of random blood glucose ([2]; 10 μg/kg single s.c., 8 h after administration): 23.32%
- random blood glucose ([2]; 10 μg/kg single s.c., 8 h after administration, ± s): 23.80 ± 1.46 mmol/L
- decrease rate of random blood glucose ([2]; 10 μg/kg single s.c., 24 h after administration): 11.52%
- random blood glucose ([2]; 10 μg/kg single s.c., 24 h after administration, ± s): 25.64 ± 1.85 mmol/L
- random blood glucose values compared with those of the control group ([2]; 10 μg/kg single s.c., after 4 h and 8 h): still kept at a lower level
- random blood glucose values compared with those of the control group ([2]; 10 μg/kg single s.c., after 24 hours): not significantly different
- random blood glucose ([2]; 10 μg/kg single s.c., before administration, ± s): 23.18 ± 1.65 mmol/L
- random blood glucose values compared with those of the control group ([2]; 10 μg/kg single s.c., time not specified): decreased immediately and significantly
- effect on reducing random blood glucose compared within the series ([2]; single s.c.): much better effect
- random blood glucose level (words, test conclusions) ([2]; single s.c., dose of 3 μg/kg (so in the source)): decreased obviously

Compound: glucagon-like peptide-1 [GLP-1]
- in vivo half-life [3]: about 2 minutes
